The subject of the experiment is P388 leukemia ip, CD2F1 mice, survival T/C. Briefly: NCI In Vivo Anticancer Drug Screen. Data for tumor model P388 Leukemia (intraperitoneal) in CD2F1 (CDF1) mice. Conditions: endpoint: median survival time, higher = longer survival. Put shortly:
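Mice carrying the transplanted tumor received test compound or vehicle. Survival was recorded in each group, and the value is the treated-group measurement divided by that of the vehicle-treated control group.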

The mark [1] stands for this setting: dose: 50.0 mg/kg/injection, schedule: Q01DX005 (ip), vehicle: saline with Tween-80.
Where [2] appears, read: dose: 100.0 mg/kg/injection, schedule: Q01DX005 (ip), vehicle: saline with Tween-80.
[3] abbreviates: dose: 200.0 mg/kg/injection, schedule: Q01DX005 (ip), vehicle: saline with Tween-80.
Setting [4] is: dose: 25.0 mg/kg/injection, schedule: Q01DX009 (ip), vehicle: saline.
The mark [5] stands for this setting: dose: 50.0 mg/kg/injection, schedule: Q01DX009 (ip), vehicle: saline.
Where [6] appears, read: dose: 60.0 mg/kg/injection, schedule: Q01DX005 (ip), vehicle: saline with Tween-80.
Where [7] appears, read: dose: 120.0 mg/kg/injection, schedule: Q01DX005 (ip), vehicle: saline with Tween-80.
Setting [8] is: dose: 240.0 mg/kg/injection, schedule: Q01DX005 (ip), vehicle: saline with Tween-80.
[9] abbreviates: dose: 25.0 mg/kg/injection, schedule: Q01DX009 (ip), vehicle: saline with Tween-80.
[10] abbreviates: dose: 25.0 mg/kg/injection, schedule: Q01DX005 (ip), vehicle: Klucel (hydroxypropylcellulose) (HPC).
Where [11] appears, read: dose: 50.0 mg/kg/injection, schedule: Q01DX005 (ip), vehicle: Klucel (hydroxypropylcellulose) (HPC).
The mark [12] stands for this setting: dose: 100.0 mg/kg/injection, schedule: Q01DX005 (ip), vehicle: Klucel (hydroxypropylcellulose) (HPC).
Setting [13] is: dose: 200.0 mg/kg/injection, schedule: Q01DX005 (ip), vehicle: Klucel (hydroxypropylcellulose) (HPC).

Values joined by “and” are separate entries in the source; they are usually repeats but may differ in a detail not shown here. Equal values may be shown once. Inconclusive results and toxic doses are left out.

With `CC(C)CC1NC(=O)OC1=O` (stereo not given), the T/C was 98 % of control under setting [1], 94 % of control under setting [2] and 91 % of control under setting [3].
Turning to `CCCCCC(CN(C)C)C(=O)CC(SCC)c1ccc(Cl)c(Cl)c1` (stereo not given), the T/C (dose: 6.25 mg/kg/injection, schedule: Q01DX009 (ip), vehicle: water) was 102 % of control and 113 % of control; the T/C (dose: 12.5 mg/kg/injection, schedule: Q01DX009 (ip), vehicle: water) is 107 % of control and 109 % of control and 111 % of control; the T/C (dose: 25.0 mg/kg/injection, schedule: Q01DX009 (ip), vehicle: water) was 107 % of control and 120 % of control and 95 % of control; the T/C (dose: 50.0 mg/kg/injection, schedule: Q01DX009 (ip), vehicle: water) is 101 % of control and 112 % of control and 115 % of control; the T/C (dose: 100.0 mg/kg/injection, schedule: Q01DX009 (ip), vehicle: water) was 108 % of control.
In the case of `Nc1cc(=O)c2[nH]cnc2[nH]1`, the T/C by setting is: (dose: 12.5 mg/kg/injection, schedule: Q01DX009 (ip), vehicle: saline) 103 % of control; under setting [4], 90 % of control; under setting [1], 101 % of control; under setting [5], 98 % of control and 101 % of control; under setting [2], 106 % of control; (dose: 100.0 mg/kg/injection, schedule: Q01DX009 (ip), vehicle: saline) 103 % of control. For the same molecule, the T/C runs as follows: under setting [3], 107 % of control; (dose: 200.0 mg/kg/injection, schedule: Q01DX009 (ip), vehicle: saline) 88 % of control.
Regarding `CCCCCCCCCCCCCCCC(=O)OOC(C)(C)C`, the T/C is 93 % of control under setting [6], 94 % of control under setting [7] and 93 % of control under setting [8].
In the case of `O=[N+]([O-])c1c(O)c(CNCCCO)cc(CNCCCO)c1O`, the T/C is 113 % of control under setting [4] and 116 % of control under setting [5].
On to `O=C(N/N=C/c1ccccn1)c1ccccc1`, for which the T/C is, setting by setting: (dose: 60.0 mg/kg/injection, schedule: Q01DX005 (ip), vehicle: Klucel (hydroxypropylcellulose) (HPC)) 102 % of control; (dose: 120.0 mg/kg/injection, schedule: Q01DX005 (ip), vehicle: Klucel (hydroxypropylcellulose) (HPC)) 97 % of control; (dose: 240.0 mg/kg/injection, schedule: Q01DX005 (ip), vehicle: Klucel (hydroxypropylcellulose) (HPC)) 100 % of control.
Consider `CN(C)C(=O)c1cc(N2CC2)c([N+](=O)[O-])cc1[N+](=O)[O-]`, for which the T/C (dose: 1.56 mg/kg/injection, schedule: Q01DX009 (ip), vehicle: saline with Tween-80) was 98 % of control and 117 % of control; the T/C (dose: 3.12 mg/kg/injection, schedule: Q01DX009 (ip), vehicle: saline with Tween-80) was 115 % of control; the T/C (dose: 6.25 mg/kg/injection, schedule: Q01DX009 (ip), vehicle: saline with Tween-80) is 100 % of control and 101 % of control and 113 % of control; the T/C under setting [9] is 110 % of control.
Consider `CC1=C(C(=O)Nc2cc(O)ccc2O)C(c2cccc([N+](=O)[O-])c2)C(C(=O)Nc2cc(O)ccc2O)=C(C)N1`, for which the T/C runs as follows: (dose: 7.5 mg/kg/injection, schedule: Q01DX005 (ip), vehicle: Klucel (hydroxypropylcellulose) (HPC)) 98 % of control; (dose: 15.0 mg/kg/injection, schedule: Q01DX005 (ip), vehicle: Klucel (hydroxypropylcellulose) (HPC)) 93 % of control; (dose: 30.0 mg/kg/injection, schedule: Q01DX005 (ip), vehicle: Klucel (hydroxypropylcellulose) (HPC)) 100 % of control.
With `C1CN(CC2CCC(CN3CCOCC3)O2)CCO1` (stereo not given), the T/C was 96 % of control (dose: 3.12 mg/kg/injection, schedule: Q01DX005 (ip), vehicle: Klucel (hydroxypropylcellulose) (HPC)); 97 % of control (dose: 6.25 mg/kg/injection, schedule: Q01DX005 (ip), vehicle: Klucel (hydroxypropylcellulose) (HPC)); 100 % of control (dose: 12.5 mg/kg/injection, schedule: Q01DX005 (ip), vehicle: Klucel (hydroxypropylcellulose) (HPC)); 114 % of control under setting [10]; 96 % of control under setting [11].
In the case of `C=CCNSc1ccccc1`, the T/C runs as follows: (dose: 12.5 mg/kg/injection, schedule: Q01DX009 (ip), vehicle: Klucel (hydroxypropylcellulose) (HPC)) 112 % of control; (dose: 25.0 mg/kg/injection, schedule: Q01DX009 (ip), vehicle: Klucel (hydroxypropylcellulose) (HPC)) 109 % of control.
`CN(C)c1ccc(C(O)(Cc2cnc3ccccc3c2)c2ccc(N(C)C)cc2)cc1`: the T/C is, setting by setting: (dose: 100.0 mg/kg/injection, schedule: Q04DX003 (ip), vehicle: saline with Tween-80) 95 % of control; (dose: 200.0 mg/kg/injection, schedule: Q04DX003 (ip), vehicle: saline with Tween-80) 103 % of control; (dose: 400.0 mg/kg/injection, schedule: Q04DX003 (ip), vehicle: saline with Tween-80) 99 % of control.
For `CC(=O)NC1=C(Cl)C(=O)c2ccccc2C1=O`, the T/C reads like this: (dose: 0.78 mg/kg/injection, schedule: Q01DX009 (ip), vehicle: Klucel (hydroxypropylcellulose) (HPC)) 98 % of control; (dose: 1.56 mg/kg/injection, schedule: Q01DX009 (ip), vehicle: Klucel (hydroxypropylcellulose) (HPC)) 100 % of control; (dose: 3.13 mg/kg/injection, schedule: Q01DX009 (ip), vehicle: Klucel (hydroxypropylcellulose) (HPC)) 107 % of control; (dose: 6.25 mg/kg/injection, schedule: Q01DX009 (ip), vehicle: Klucel (hydroxypropylcellulose) (HPC)) 104 % of control and 88 % of control.
As to `CSC(SC)(SC)c1cc(C)no1`, the T/C by setting is: under setting [6], 111 % of control; under setting [7], 102 % of control; under setting [8], 104 % of control.
Turning to `O=C(O)CCC(=O)CCC(=O)c1ccc(O)c2ncccc12`, the T/C by setting is: under setting [11], 92 % of control; under setting [12], 105 % of control; under setting [13], 111 % of control.
For `CONC(C)=O`, the T/C was 98 % of control (dose: 60.0 mg/kg/injection, schedule: Q01DX005 (ip), vehicle: saline); 100 % of control (dose: 120.0 mg/kg/injection, schedule: Q01DX005 (ip), vehicle: saline); 100 % of control (dose: 240.0 mg/kg/injection, schedule: Q01DX005 (ip), vehicle: saline).
Regarding `O=C1CN(CCCO)CC(=O)N2Cc3ccccc3CN12`, the T/C is 94 % of control (dose: 50.0 mg/kg/injection, schedule: Q01DX005 (ip), vehicle: saline); 100 % of control (dose: 100.0 mg/kg/injection, schedule: Q01DX005 (ip), vehicle: saline); 99 % of control (dose: 200.0 mg/kg/injection, schedule: Q01DX005 (ip), vehicle: saline).
For the molecule `CC(=O)Nc1ccccc1CO`, the T/C is, setting by setting: under setting [10], 97 % of control; under setting [11], 100 % of control; under setting [12], 100 % of control; under setting [13], 100 % of control.
Turning to `CN(N=O)C(N)=O`, the T/C is 104 % of control (dose: 5.0 mg/kg/injection, schedule: Q04DX003 (ip), vehicle: saline with Tween-80); 119 % of control (dose: 10.0 mg/kg/injection, schedule: Q04DX003 (ip), vehicle: saline with Tween-80); 159 % of control (dose: 12.5 mg/kg/injection, schedule: Q01DX009 (ip), vehicle: saline with Tween-80); 95 % of control under setting [9]; 177 % of control (dose: 25.0 mg/kg/injection, schedule: Q04DX003 (ip), vehicle: saline with Tween-80); 172 % of control (dose: 37.5 mg/kg/injection, schedule: Q04DX003 (ip), vehicle: saline with Tween-80). The T/C (dose: 50.0 mg/kg/injection, schedule: Q04DX003 (ip), vehicle: saline with Tween-80) is 113 % of control.
On to `O=C(c1ccccc1)C(O)(CC(c1ccccc1)[P+](c1ccccc1)(c1ccccc1)c1ccccc1)c1ccccc1` (stereo not given), for which the T/C runs as follows: (dose: 1.32 mg/kg/injection, schedule: Q01DX009 (ip), vehicle: saline with Tween-80) 90 % of control; (dose: 2.0 mg/kg/injection, schedule: Q01DX009 (ip), vehicle: saline with Tween-80) 104 % of control; (dose: 3.0 mg/kg/injection, schedule: Q01DX009 (ip), vehicle: saline with Tween-80) 113 % of control; (dose: 4.5 mg/kg/injection, schedule: Q01DX009 (ip), vehicle: saline with Tween-80) 118 % of control.
As for `COCC1(C)CCCC2(C)C1CCC13CCC(OC(C)=O)CC12O3` (stereo not given), the T/C reads like this: (dose: 100.0 mg/kg/injection, schedule: Q01DX001 (ip), vehicle: saline) 102 % of control; (dose: 200.0 mg/kg/injection, schedule: Q01DX001 (ip), vehicle: saline) 108 % of control; (dose: 400.0 mg/kg/injection, schedule: Q01DX001 (ip), vehicle: saline) 110 % of control.
